Values of other authors in patent publication EP0918795B1, “ANTIANGIOGENIC DRUG TO TREAT CANCER, ARTHRITIS AND RETINOPATHY” (Abbott Laboratories, priority 1997, dated 2004).
No end group written: not given here.

Key:
[1] = tested on: cultured endothelial cells; conditions: inhibition of the migration of cultured endothelial cells

SPWSSASVTAGDGVITRIR [MalII, 19-mer synthetic peptide mimicking properdin-like repeat region 1 of TSP1]
ED50 [1]: about 1 µM | neovascularization in vivo in the rat cornea (rat cornea): blocked neovascularization
